Measurements as given in patent US20070082920A1, “NAD+-dependent DNA ligase inhibitors” (priority 2005, published 2007).

Assays:
[1] = system: Staphylococcus aureus ATCC 29213; assay: MIC, broth microdilution (CLSI), S. aureus; type: cell-based; settings: lowest concentration inhibiting visual growth
Protocol: (§1) The compounds of Formulas 1-VIII were evaluated as inhibitors of NAD+-dependent DNA ligase inhibitors. Their antimicrobial activity was evaluated against bacteria using the broth microdilution method as described by Clinical Laboratory Standards Institute (formerly NCCLS). Activity was assessed against the following bacterial strains: Staphylococcus aureus ATCC 29213, Streptococcus pneumoniae ATCC 49619, Escherichia coli ATCC 25922, E. coli CGSC 5633 (ToIC mutant), Haemophilus influenzae ATCC 49766, Streptococcus pyogenes ATCC 19615, Moraxella catterhalis ATCC 25238, Enterococcus faecalis ATCC 29212. The lowest concentration of compound which inhibited visual growth of each bacterium, the minimum inhibitory concentration (MIC), was determined.

[2] = system: Streptococcus pneumoniae ATCC 49619; assay: MIC, broth microdilution (CLSI), S. pneumoniae; type: cell-based
Protocol: as §1

[3] = system: Escherichia coli ATCC 25922; assay: MIC, broth microdilution (CLSI), E. coli ATCC 25922; type: cell-based; parameters: unit not given here
Protocol: as §1

[4] = system: E. coli CGSC 5633 (ToIC mutant); assay: MIC, broth microdilution (CLSI), E. coli CGSC 5633; type: cell-based, Escherichia coli; parameters: unit not given beside the values
Protocol: as §1

[5] = system: Enterococcus faecalis ATCC 29212; assay: MIC, broth microdilution (CLSI), E. faecalis; type: cell-based; parameters: unit not given here
Protocol: as §1

[6] = system: Haemophilus influenzae ATCC 49766; assay: MIC, broth microdilution (CLSI), H. influenzae; type: cell-based; parameters: unit not given beside the values
Protocol: as §1

[7] = system: Moraxella catterhalis ATCC 25238; assay: MIC, broth microdilution (CLSI), M. catarrhalis; type: cell-based
Protocol: as §1

[8] = system: Streptococcus pyogenes ATCC 19615; assay: MIC, broth microdilution (CLSI), S. pyogenes; type: cell-based
Protocol: as §1

[9] = Acute toxicity, Alamar blue cell viability, HepG2; type: cell-based; settings: human
Protocol: (§2) Acute toxicity was assessed against two mammalian cell lines, HepG2 (human hepatocyte) and NIH 3T3 (mouse fibroblast). Cell viability was measured by an in vitro assay using Alamar blue. The concentration of compound which inhibited 50% of the cell growth (LC50) was determined.

[10] = Acute toxicity, Alamar blue cell viability, NIH 3T3; type: cell-based; settings: mouse
Protocol: as §2

[11] = target: DNA ligase enzyme (NAD+-dependent DNA ligase) (Streptococcus pneumoniae serotype 4, UniProt Q97QT2); assay: DNA ligase AMP release assay (luciferase readout); type: biochemical; settings: purified enzyme from S. pneumoniae
Protocol: Activity against DNA ligase enzyme was measured using purified enzyme from S. pneumoniae. An AMP release assay was used to assess activity of compounds against the enzyme. AMP, released as a result of the ligation of oligonucleotides, is converted to ATP, which is then measured using luciferase enzyme. The concentration of compound which inhibited 50% of the ligation activity of the enzyme (IC50) was determined.

[12] = HepG2 cells, Alamar blue, 50% inhibition of cell growth, read-out: Acute Tox LC50 μM/ HepG2
[13] = NIH 3T3 cells, Alamar blue, 50% inhibition of cell growth, read-out: Acute Tox LC50 μM/ NIH-3T3

Sequence of DNA ligase enzyme (NAD+-dependent DNA ligase) (Q97QT2 whole entry): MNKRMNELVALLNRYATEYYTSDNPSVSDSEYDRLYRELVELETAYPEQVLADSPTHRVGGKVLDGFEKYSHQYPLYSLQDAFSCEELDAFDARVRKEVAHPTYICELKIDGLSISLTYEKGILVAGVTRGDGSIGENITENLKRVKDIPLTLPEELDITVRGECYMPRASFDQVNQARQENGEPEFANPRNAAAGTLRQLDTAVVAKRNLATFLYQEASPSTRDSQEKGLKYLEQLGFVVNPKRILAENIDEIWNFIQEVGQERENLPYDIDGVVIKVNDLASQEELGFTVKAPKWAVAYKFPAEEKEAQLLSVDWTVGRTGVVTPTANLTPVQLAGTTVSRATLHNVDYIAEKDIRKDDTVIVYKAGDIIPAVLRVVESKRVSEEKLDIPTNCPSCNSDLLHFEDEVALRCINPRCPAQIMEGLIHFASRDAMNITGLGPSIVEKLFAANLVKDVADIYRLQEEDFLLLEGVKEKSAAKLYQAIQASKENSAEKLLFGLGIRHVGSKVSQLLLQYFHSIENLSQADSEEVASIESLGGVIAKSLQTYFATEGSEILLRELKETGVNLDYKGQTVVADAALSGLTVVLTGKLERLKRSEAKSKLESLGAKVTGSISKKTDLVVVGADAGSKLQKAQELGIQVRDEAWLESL

Row | Structure (SMILES) | MIC S. aureus ATCC 29213 [1] | MIC S. pneumoniae [2] | MIC E. coli ATCC 25922 [3] | MIC E. coli CGSC 5633 [4] | MIC E. faecalis [5] | MIC H. influenzae [6] | MIC M. catarrhalis [7] | MIC S. pyogenes [8] | CC50 [9] | CC50 [10] | IC50 [11] | CC50 [9, 12] | CC50 [10, 13]
1 | Cc1c(Cc2ccccc2)c(NCc2ccc(F)c(F)c2)nc2nc(N)nc(N)c12 [II-b] | 4 | 4 | 32 | 0.125 | 1 | 64 | 2 | 1 | 14 µM | 2.94 µM | 12.6 µM | – | –
2 | Cc1c(Cc2ccccc2)c(N(C)C2CCCCC2)nc2nc(N)nc(N)c12 [II-c] | 4 | 4 | 128 | <0.125 | 2 | >128 | 2 | 2 | 15 µM | 5.13 µM | 11.3 µM | – | –
3 | CCCCc1c(NCc2ccc(F)c(F)c2)nc2nc(N)nc(N)c2c1C [II-d] | 4 | 1 | 32 | <0.125 | 2 | 16 | 2 | 2 | 17.2 µM | 5.16 µM | – | – | –
4 | Cc1c(N(C)C2CCCCC2)nc2nc(N)nc(N)c2c1C [II-e] | 32 | 4 | 64 | 0.125 | 1 | – | 4 to 8 | 2 to 8 | 19 µM | 10.9 µM | 79.1 µM | – | –
5 | Cc1c(C2CCCC2)c(NCc2ccc(F)c(F)c2)nc2nc(N)nc(N)c12 [II-g] | 4 | 4 | >128 | 2 | 4 | 16 | 1 | 4 | 16.4 µM | 2.67 µM | – | – | –
6 | COc1cc(CN(C)c2nc3nc(N)nc(N)c3c(C)c2C2CCCC2)cc(OC)c1 [II-h] | 4 | 0.5 | 32 | <0.125 | <0.125 | 4 | 1 | 1 | 17.5 µM | 3.26 µM | – | – | –
7 | Cc1cc(NCc2ccc(F)cc2)nc2nc(N)nc(N)c12 [III-a] | 32 | 64 | 32 | 0.25 | 4 | 2 | 8 | 2 | 24 µM | 8.14 µM | – | – | –
8 | Cc1cc(NCc2cc(F)cc(C(F)(F)F)c2)nc2nc(N)nc(N)c12 [III-b, 2,4-diamino-5-methyl-7-[(3-fluoro-5-trifluoromethylbenzyl)amino]-pyrido[2,3-d]pyrimidine] | 16 | 1 | 16 | <0.125 | 0.5 | 32 | 8 | 4 | 20.9 µM | 8.34 µM | – | – | –
9 | Cc1cc(NCc2ccc(C(F)(F)F)cc2)nc2nc(N)nc(N)c12 [III-c] | 16 | 4 | 16 | 0.25 | 4 | 16 | 8 | 4 | 22.8 µM | 11.2 µM | – | – | –
10 | Cc1cc(NCc2cc(C(F)(F)F)cc(C(F)(F)F)c2)nc2nc(N)nc(N)c12 [III-d] | 16 | 2 | 16 | 1 | 1 | 16 | 4 | 2 | 19.5 µM | 7.72 µM | – | – | –
11 | Cc1cc(NCc2ccc(Cl)c(C(F)(F)F)c2)nc2nc(N)nc(N)c12 [III-f] | 8 | 1 | 16 | <0.125 | 1 | 16 | 2 | 2 | 15.2 µM | 8.32 µM | – | – | –
12 | Cc1cc(Nc2ccc3c(c2)OCCCO3)nc2nc(N)nc(N)c12 [III-p] | 128 | 4 | 64 | 0.125 | 0.5 | – | 16 | – | 20 µM | 15.6 µM | 11.4 µM | – | –
13 | COc1cc(CN(C)c2cc(C)c3c(N)nc(N)nc3n2)cc(OC)c1OC [IV-a] | 64 | 4 | 15 | <0.125 | 2 | 64 | 16 | 64 | – | – | 15.2 µM | – | –
14 | COc1cc(CN(C)c2cc(C)c3c(N)nc(N)nc3n2)cc(OC)c1 [IV-c] | 32 | 0.5 | 16 | <0.125 | 0.5 | 32 | 1 | 8 | 37.4 µM | 14.6 µM | – | – | –
15 | Cc1cc(N(C)C2CCCCC2)nc2nc(N)nc(N)c12 [IV-d] | 64 | 8 | 64 | 0.125 | 2 | 51 | 16 | 32 | 23.4 µM | 12.8 µM | 15.2 µM | – | –
16 | CCCc1cc(N(C)C2CCCCC2)nc2nc(N)nc(N)c12 [IV-e] | 32 | 2 | 128 | 0.5 | 1 | – | 4 | 1 | 15.1 µM | 9.9 µM | 80.6 µM | – | –
17 | Cc1cc(N2CCCc3ccccc32)nc2nc(N)nc(N)c12 [V-a] | 32 | 8 | 64 | <0.125 | <0.125 | 16 | 16 | 32 | 27.1 µM | 11.5 µM | – | – | –
18 | Cc1cc(N2Cc3ccccc3C2)nc2nc(N)nc(N)c12 [V-b] | 16 | 8 | 64 | 2 | 8 | >128 | 32 | 16 | 8.85 µM | 8.09 µM | 7.35 µM | – | –
19 | Nc1nc(N)c2c3c(c(NCc4ccc(F)c(F)c4)nc2n1)CCCC3 [VII-a] | 16 | 4 | >128 | 0.5 | 8 | 64 | 8 | 32 | 19.2 µM | 1.24 µM | 17.3 µM | – | –
20 | Cc1cc(NCc2cc(F)c(F)c(F)c2)nc2nc([N+](=O)[O-])nc([N+](=O)[O-])c12 [VIII-a] | 8 | 16 | 64 | 4 | 16 | 32 | 2 | 8 | – | – | – | > 30.8 µM | 22.2 µM
21 | Cc1cc(NCc2cc(F)cc(C(F)(F)F)c2)nc2nc([N+](=O)[O-])nc([N+](=O)[O-])c12 [VIII-b] | 8 | 8 | 64 | 2 | 4 | 64 | 4 | 4 | – | – | – | > 16.4 µM | 12.1 µM
